Results as given in US6451814B1, “Heterocyclic β-3 adrenergic receptor agonists” (Wyeth, priority 2000, dated 2002).
Values joined by “and” are separate entries in the source; they are usually repeats but may differ in a detail not shown here. Identical values can stand only once.

Molecular target: T1, human β3-adrenergic receptor (Homo sapiens, UniProt P13945)
T1 construct: Full length β3 AR clones (402 amino acids) containing the last 6 amino acids of hβ3—AR are prepared; expressed in transfected cells; host or cells: CHO cells
T1 sequence (P13945 whole entry): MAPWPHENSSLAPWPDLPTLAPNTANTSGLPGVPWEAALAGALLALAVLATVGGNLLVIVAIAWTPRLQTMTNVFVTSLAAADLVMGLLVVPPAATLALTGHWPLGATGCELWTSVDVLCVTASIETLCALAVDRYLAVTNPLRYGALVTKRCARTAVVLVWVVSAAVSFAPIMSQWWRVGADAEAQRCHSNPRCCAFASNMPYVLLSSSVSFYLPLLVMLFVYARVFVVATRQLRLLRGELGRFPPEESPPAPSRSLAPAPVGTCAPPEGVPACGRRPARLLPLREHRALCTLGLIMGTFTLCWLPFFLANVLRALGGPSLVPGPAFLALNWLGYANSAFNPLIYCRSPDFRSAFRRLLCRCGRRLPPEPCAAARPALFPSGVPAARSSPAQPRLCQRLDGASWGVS
Experiment: cAMP response (SPA kit) in CHO cells transfected with human β3 adrenergic receptor
Type: cell-based
Settings: for IA(β3): maximal response of compound compared to maximal response of isoproterenol at 10^-5 M, CHO cells, human β3-AR; for EC50: CHO cells expressing human β3-AR, 10^-9 M to 10^-5 M, 30 min at 37° C., cAMP by SPA, read-out: EC50(β3)

Compound | IA(β3) | EC50 [µM]
O=C(NCc1ccc(F)cc1F)N1CCC(Nc2ccc(CCNC[C@H](O)COc3ccc(O)cc3)cc2)CC1 [Example 80, 4-(4-{2-[(2S)-2-Hydroxy-3-(4-hydroxy-phenoxy)-propylamino]-ethyl}-phenylamino)-piperidine-1-carboxylic acid 2,4-difluoro-benzylamide] | 0.84 | 
CNC(=O)N1CCC(Nc2ccc(CCNC[C@H](O)COc3ccc(O)cc3)cc2)CC1 [Example 9, 4-(4-{2-[(2S)-2-Hydroxy-3-(4-hydroxy-phenoxy)-propylamino]-ethyl}-phenylamino)-piperidine-1-carboxylic Acid Methylamide] | 0.85 | 
CCCCCCNC(=O)N1CCC(S(=O)(=O)c2ccc(CCNC[C@H](O)COc3ccc(O)cc3)cc2)CC1 [Example 44, 4-(4-{2-[(2S)-2-Hydroxy-3-(4-hydroxy-phenoxy)-propylamino]-ethyl}-benzenesulfonyl)-piperidine-1-carboxylic Acid Hexylamide] | 0.99 | 0.036
COc1cccc(CCNC(=O)N2CCC(Nc3ccc(CCNC[C@H](O)COc4ccc(O)cc4)cc3)CC2)c1 [Example 6, 4-(4-{2-[(2S)-2-Hydroxy-3-(4-hydroxy-phenoxy)-propylamino]-ethyl}-phenylamino)-piperidine-1-carboxylic Acid [2-(3-methoxy-phenyl)-ethyl]-amide] | 1.21 | 0.106
Cc1sccc1C(=O)N1CCC(S(=O)(=O)c2ccc(CCNC[C@H](O)COc3ccc(O)cc3)cc2)CC1 [Example 107, [4-(4-{2-[(2S)-2-Hydroxy-3-(4-hydroxy-phenoxy)-propylamino]-ethyl}benenesulfonyl)-piperidin-1-yl]-(2-methyl-thiophen-3-yl)-methanone] | 0.92 | 0.04
CS(=O)(=O)Nc1cc([C@@H](O)CNCCc2ccc(NC3CCN(C(=O)c4ccc(C(=O)O)cc4)CC3)cc2)ccc1O [Example 105, 4-[4-(4-{2-[(2R)-2-Hydroxy-2-(4-hydroxy-3-methanesulfonylamino-phenyl)-ethylamino]-ethyl}-phenylamino)-piperidine-1-carbonyl]-benzoic Acid] | 1 | 0.037
O=C(NCCc1cccc(F)c1)N1CCC(Nc2ccc(CCNC[C@H](O)COc3ccc(O)cc3)cc2)CC1 [Example 88, 4-(4-{2-[(2S)-2-Hydroxy-3-(4-hydroxy-phenoxy)-propylamino]-ethyl}-phenylamino)-piperidine-1-carboxylic Acid [2-(3-fluoro-phenyl)-ethyl]-amide] | 0.81 | 0.021
CC(=O)Nc1ccc(S(=O)(=O)N2CCC(Nc3ccc(CCNC[C@H](O)COc4ccc(O)cc4)cc3)CC2)cc1 [Example 114, N-{4-[4-(4-{2-[(2S)-2-Hydroxy-3-(4-hydroxy-phenoxy)-propylamino]-ethyl}-phenylamino)-piperidine-1-sulfonyl]-phenyl}-acetamide] | 1.1 | 0.033
Cc1ccc(S(=O)(=O)N2CCC(Nc3ccc(CCNC[C@H](O)COc4ccc(O)cc4)cc3)CC2)cc1 [Example 112, 4-[(2S)-2-Hydroxy-3-(2-{4-[1-(toluene-4-sulfonyl)-piperidin-4-ylamino]-phenyl}-ethylamino)-propoxy]-phenol] | 0.89 | 0.086
CC(=O)Nc1nc(C)c(S(=O)(=O)N2CCC(Nc3ccc(CCNC[C@H](O)c4ccc(O)c(NS(C)(=O)=O)c4)cc3)CC2)s1 [Example 115, N-(5-{[4-(4-{2-[((2R)-2-hydroxy-2-{4-hydroxy-3-[(methylsulfonyl)amino]phenyl}-ethyl)amino]ethyl}anilino)piperidin-1-yl]sulfonyl}-4-methyl-1,3-thiazol-2-yl)acetamide] | 0.97 | 0.013
O=C(NCc1ccc(F)cc1)N1CCC(Oc2ccc(CCNC[C@H](O)COc3ccc(O)cc3)cc2)CC1 [Example 56, 4-(4-{2-[(2S)2-Hydroxy-3-(4-hydroxy-phenoxy)-propylamino]-ethyl}-phenoxy)-piperidine-1-carboxylic Acid 4-fluoro-benzylamide] | 0.84 | 0.052
Cc1ccsc1C(=O)N1CCC(Nc2ccc(CCNC[C@H](O)COc3ccc(O)cc3)cc2)CC1 [Example 100, [4-(4-{2-[(2S)-2-Hydroxy-3-(4-hydroxy-phenoxy)-propylamino]-ethyl}-phenylamino)-piperidin-1-yl]-(3-methyl-thiophen-2-yl)-methanone] | 0.98 | 0.016
O=C(O)C1CCN(C(=O)N2CCC(Nc3ccc(CCNC[C@H](O)COc4ccc(O)cc4)cc3)CC2)CC1 [Example 62, 1-[4-(4-{2-[(2S)-2-Hydroxy-3-(4-hydroxy-phenoxy)-propylamino]-ethyl}-phenylamino)-piperidine-1-carbonyl]-piperidine-4-carboxylic acid] | 1.05 | 0.134
Oc1ccc(OC[C@@H](O)CNCCc2ccc(NC3CCN(c4nc(-c5ccccc5)cs4)CC3)cc2)cc1 [Example 117, 4-[(2S)-2-Hydroxy-3-(2-{4-[1l-(4-phenyl-thiazol-2-yl)-piperidin-4-ylamino]-phenyl}-ethylamino)-propoxy]-phenol] | 1.1 | 0.208
O=C(O)COc1ccc(CNC(=O)N2CCC(Nc3ccc(CCNC[C@H](O)COc4ccc(O)cc4)cc3)CC2)c(F)c1 [Example 86, [3-Fluoro-4-[[[[4-[[4-[2-[[(S)-2-hydroxy-3-(4-hydroxyphenoxy)propyl]amino]ethyl]phenyl]amino]-1-piperidinyl]carbonyl]amino]methyl]phenoxy]acetic Acid] | 1.1 | 0.127
CCOC(=O)c1ccc(N2CCC(Nc3ccc(CCNC[C@H](O)c4ccc(O)c(NS(C)(=O)=O)c4)cc3)CC2)cc1 [Example 120, 4-[4-(4-{2-[(2R)-2-Hydroxy-2-(4-hydroxy-3-methanesulfonylamino-phenyl)-ethylamino]-ethyl}-phenylamino)-piperidin-1-yl]-benzoic Acid Ethyl Ester] | 1.1 | 0.025
4-(4-{2-[(2S)-2-Hydroxy-3-(4-hydroxy-phenoxy)-propylamino]-ethyl}-phenylamino)-piperidine-1-carboxylic Acid 4-fluoro-benzylamide [Example 53] | 1.17 and 1.5 | 
COC(=O)[C@@H]1CCCN1C(=O)N1CCC(Nc2ccc(CCNC[C@H](O)c3ccc(O)c(NS(C)(=O)=O)c3)cc2)CC1 [Example 77, 1-[[4-[[4-[2-[[(2R)-2-Hydroxy-2-[4-hydroxy[(methylsulfonyl)amino]phenyl]ethyl]amino]ethyl]phenyl]amino]-1-piperidinyl]carbonyl]-L-proline, Methyl Ester] | 0.99 | 0.028
CCCCCCCCNC(=O)N1CCC(Nc2ccc(CCNC[C@H](O)COc3ccc(N)nc3)cc2)CC1 [Example 5, 4-(4-{2-[(2S)-3-(6-Amino-pyridin-3-yloxy)-2-hydroxy-propylamino]-ethyl}-phenylamino)-piperidine-1-carboxylic Acid Octylamide] | 0.68 | 
